The values below come from the C3SDB collision cross section collection.

Where “and” joins values, the source holds several entries; their conditions need not be identical. Equal entries are not always repeated. Structures can show the parent of a compound that is named as a salt.

For the series the following is noted: instrument: DT, single field, calibrated with ESI Low Concentration Tuning Mix (Agilent).

Consider `Nc1nc(=O)c2ncn([C@@H]3O[C@H](COP(=O)(O)OP(=O)(O)O)[C@@H](O)[C@H]3O)c2[nH]1` [GUANOSINE DIPHOSPHATE], for which the “collision cross section (N2)” value is listed as 192 Å² ([M+H]+), 186.4 Å² ([M+Na-2H]-), 188.4 Å² ([M+Na]+) and 182.4 Å² ([M-H]-).

With `Nc1nc(=O)c2ncn([C@@H]3O[C@H](COP(=O)(O)OP(=O)(O)OP(=O)(O)O)[C@@H](O)[C@H]3O)c2[nH]1` [GUANOSINE TRIPHOSPHATE], the “collision cross section (N2)” value is, setting by setting: ([M+Na-2H]-) 184.2 Å²; ([M-H]-) 193 Å².

`Nc1nc(=O)c2ncn([C@@H]3O[C@H](CO)[C@@H](O)[C@H]3O)c2[nH]1` [GUANOSINE]: the “collision cross section (N2)” value is 163.4 Å² ([M+H]+), 174.3 Å² ([M+K]+), 174.9 Å² ([M+Na]+) and 162.1 Å² ([M-H]-).

Regarding `NCCc1cnc[nH]1` [HISTAMINE], the “collision cross section (N2)” value ([M+H]+) is given as 120.4 Å².

With `N[C@@H](Cc1cnc[nH]1)C(=O)O` [HISTIDINE], the “collision cross section (N2)” value is, setting by setting: ([M+H]+) 131.7 Å² and 132.1 Å²; ([M+Na]+) 134.6 Å² and 134.8 Å²; ([M-H]-) 128.1 Å² and 128.5 Å².

As to `NC(CO)Cc1cnc[nH]1` (stereo unspecified) [HISTIDINOL], the “collision cross section (N2)” value is, setting by setting: ([M+H]+) 128.7 Å²; ([M+Na]+) 131.9 Å²; ([M-H]-) 127.5 Å².

For the molecule `N[C@@H](CCS)C(=O)O` [HOMOCYSTEINE], the “collision cross section (N2)” value is, setting by setting: ([M+H]+) 130.3 Å²; ([M+Na-2H]-) 127.6 Å²; ([M-H]-) 143.6 Å².

Consider `NC(CCSSCCC(N)C(=O)O)C(=O)O` (stereo unspecified) [HOMOCYSTINE], for which the “collision cross section (N2)” value worked out at 158 Å² ([M+H]+), 154.2 Å² ([M+Na-2H]-), 158.8 Å² ([M+Na]+) and 151.6 Å² ([M-H]-).

Turning to `O=c1nc[nH]c2c1ncn2[C@@H]1O[C@H](CO)[C@@H](O)[C@H]1O` [INOSINE], the “collision cross section (N2)” value is, setting by setting: ([M+K]+) 170.2 Å²; ([M+Na]+) 170.8 Å²; ([M-H]-) 158.2 Å².

Regarding `O=C(O)CC(C(=O)O)C(O)C(=O)O` (stereo unspecified) [ISOCITRATE], the “collision cross section (N2)” value is, setting by setting: ([M+Na-2H]-) 136.4 Å²; ([M+Na]+) 142.7 Å²; ([M-H]-) 127 Å².

As to `C=C(CC(=O)O)C(=O)O` [ITACONATE], the “collision cross section (N2)” value reads like this: ([M+Na]+) 131.7 Å²; ([M-H]-) 118.7 Å².

In the case of `N[C@@H](Cc1ccc(O)c(O)c1)C(=O)O` [L-DOPA], the “collision cross section (N2)” value was determined as 149.4 Å² ([M+H]+), 147.5 Å² ([M+Na]+) and 140.6 Å² ([M-H]-).

For `CC(C)C[C@H](N)C(=O)O` [LEUCINE], the “collision cross section (N2)” value is reported as 134.8 Å² ([M+H]+) and 130.6 Å² ([M-H]-).

As to `CCCCC/C=C\C/C=C\CCCCCCCC(=O)O` [LINOLEATE], the “collision cross section (N2)” value ([M+Na]+) came to 177 Å².

For the molecule `O=C(O)CC(O)C(=O)O` (stereo unspecified) [MALATE], the “collision cross section (N2)” value ([M-H]-) stood at 115.9 Å².

For `OC[C@H]1O[C@H](O[C@H]2[C@H](O)[C@@H](O)[C@H](O)O[C@@H]2CO)[C@H](O)[C@@H](O)[C@@H]1O` [MALTOSE], the “collision cross section (N2)” value is, setting by setting: ([M+K]+) 181.7 Å²; ([M+Na]+) 178.9 Å²; ([M-H]-) 180.1 Å².

Take `O=C([O-])C(O)c1ccccc1` (stereo unspecified) [MANDELATE]: the “collision cross section (N2)” value ([M-H]-) worked out at 130.2 Å².

Turning to `OC[C@H]1OC(O)[C@@H](O)[C@@H](O)[C@@H]1O` (stereo partly specified) [MANNOSE], for the setting “[M+Na]+”, the “collision cross section (N2)” value was found to be 141.5 Å².

As for `C[C@@](O)(CCO)CC(=O)[O-]` [MEVALONATE], the “collision cross section (N2)” value by setting is: ([M+Na]+) 132.9 Å²; ([M-H]-) 128.7 Å².

As for `OC1C(O)C(O)C(O)C(O)C1O` (stereo unspecified) [MYOINOSITOL], the “collision cross section (N2)” value was 148.6 Å² ([M+Na]+) and 131.3 Å² ([M-H]-).

As to `CC(=O)N[C@@H](CCC(=O)O)C(=O)O` [N-ACETYLGLUTAMATE], the “collision cross section (N2)” value ([M+Na-2H]-) turned out to be 143.3 Å², the “collision cross section (N2)” value ([M+Na]+) was determined as 142.4 Å² and the “collision cross section (N2)” value ([M-H]-) is 136.9 Å².

For the molecule `CC(=O)N[C@@H](CC(C)C)C(=O)O` [N-ACETYLLEUCINE], the “collision cross section (N2)” value runs as follows: ([M+Na]+) 149.9 Å²; ([M-H]-) 140.5 Å².

For the molecule `CC(=O)N[C@H]1[C@H]([C@H](O)[C@H](O)CO)OC(O)(C(=O)O)C[C@@H]1O` (stereo partly specified) [N-ACETYLNEURAMINATE], the “collision cross section (N2)” value reads like this: ([M+H]+) 166.5 Å²; ([M+Na-2H]-) 171.4 Å²; ([M+Na]+) 168.7 Å²; ([M-H]-) 158.5 Å² and 163.8 Å².

With `CN[C@@H](CCC(=O)O)C(=O)O` [N-METHYLGLUTAMATE], the “collision cross section (N2)” value ([M+H]+) stood at 132.2 Å², the “collision cross section (N2)” value ([M+Na-2H]-) was determined as 137.2 Å² and the “collision cross section (N2)” value ([M-H]-) was 129.5 Å².

For `CNCCc1c[nH]c2ccccc12` [N-METHYLTRYPTAMINE], the “collision cross section (N2)” value ([M+H]+) is reported as 142.5 Å².

Turning to `O=C([O-])c1cccnc1` [NICOTINATE], the “collision cross section (N2)” value ([M-H]-) is on record as 121 Å².

For `COc1cc(C(O)CN)ccc1O` (stereo unspecified) [NORMETANEPHRINE], for the setting “[M+Na]+”, the “collision cross section (N2)” value amounted to 155 Å².

As for `O=C(O)CCCCCCCCCCCO` [OMEGA-HYDROXYDODECANOATE], the “collision cross section (N2)” value is, setting by setting: ([M+Na]+) 160.3 Å²; ([M-H]-) 152.6 Å².

Regarding `O=C(O)CCCC(=O)C(=O)O` [OXOADIPATE], the “collision cross section (N2)” value reads like this: ([M+Na-2H]-) 132.2 Å²; ([M+Na]+) 137.9 Å²; ([M-H]-) 126.5 Å².

As for `CCCCCC/C=C\CCCCCCCC(=O)O` [PALMITOLEATE], the “collision cross section (N2)” value ([M-H]-) was found to be 167.3 Å².

Consider `CCCCCCCCCCCCCCCC(=O)OC(CC(=O)[O-])C[N+](C)(C)C` (stereo unspecified) [PALMITOYLCARNITINE], for which the “collision cross section (N2)” value by setting is: ([M+H]+) 213.9 Å²; ([M+Na]+) 219.7 Å².

For the molecule `CN(CC(=O)O)/C(N)=N/P(=O)(O)O` [PHOSPHOCREATINE], the “collision cross section (N2)” value by setting is: ([M+H]+) 144.6 Å² and 144.8 Å²; ([M+Na-2H]-) 142.7 Å² and 142.8 Å².

As for `C=C(OP(=O)(O)O)C(=O)O` [PHOSPHOENOLPYRUVATE], the “collision cross section (N2)” value ([M+Na]+) is 138 Å² and 138.4 Å².

Turning to `O=C(O)CP(=O)(O)O` [PHOSPHONOACETATE], the “collision cross section (N2)” value ([M+Na]+) is recorded as 134.5 Å².

As for `CC(=O)[C@H]1CC[C@H]2[C@@H]3CC=C4C[C@@H](OS(=O)(=O)O)CC[C@]4(C)[C@H]3CC[C@]12C` [PREGNENOLONE SULFATE], the “collision cross section (N2)” value ([M-H]-) turned out to be 206.2 Å².

For the molecule `O=C(O)[C@@H]1CCCN1` [PROLINE], the “collision cross section (N2)” value stood at 125.1 Å² ([M+H]+) and 124.5 Å² ([M-H]-).

As to `C=Cc1c(C)c2cc3[nH]c(cc4nc(cc5nc(cc1[nH]2)C(C)=C5CCC(=O)O)C(CCC(=O)O)=C4C)c(C)c3C=C` [PROTOPORPHYRIN], the “collision cross section (N2)” value ([M+H]+) is 241.3 Å².

For the molecule `OCC1(O)OC[C@@H](O)[C@@H](O)[C@H]1O` (stereo partly specified) [PSICOSE], the “collision cross section (N2)” value ([M+Na]+) is 137.6 Å².

Take `Nc1nc(=O)c2nccnc2[nH]1` [PTERIN]: the “collision cross section (N2)” value is, setting by setting: ([M+H]+) 128.6 Å²; ([M+Na]+) 143.4 Å²; ([M-H]-) 128.1 Å².

In the case of `Cc1ncc(COP(=O)(O)O)c(C=O)c1O` [PYRIDOXAL-PHOSPHATE], the “collision cross section (N2)” value reads like this: ([M+H]+) 151.3 Å²; ([M+Na-2H]-) 153.2 Å²; ([M+Na]+) 160.8 Å²; ([M-H]-) 149.4 Å².

For the molecule `O=C(O)C1(O)C[C@@H](O)C(O)[C@H](O)C1` (stereo partly specified) [QUINATE], the “collision cross section (N2)” value was 151.7 Å² ([M+Na]+) and 134.5 Å² ([M-H]-).

For `CC(=O)Oc1cccc(O)c1` [RESORCINOL MONOACETATE], the “collision cross section (N2)” value ([M-H]-) was found to be 126.1 Å².

On to `OC[C@@H](O)C(O)[C@@H](O)CO` (stereo partly specified) [RIBITOL], for which the “collision cross section (N2)” value ([M+Na]+) was 136.2 Å² and the “collision cross section (N2)” value ([M-H]-) is 125.8 Å².

`NC(CSCC(=O)O)C(=O)O` (stereo unspecified) [S-CARBOXYMETHYLCYSTEINE]: the “collision cross section (N2)” value ([M+H]+) was found to be 137.1 Å², the “collision cross section (N2)” value ([M+Na-2H]-) is on record as 136.7 Å², the “collision cross section (N2)” value ([M+Na]+) came out at 138.2 Å² and the “collision cross section (N2)” value ([M-H]-) came to 130 Å².

As to `O=C(O)c1ccccc1[O-]` [SALICYLATE], the “collision cross section (N2)” value ([M-H]-) is reported as 119.8 Å².

In the case of `NCCCNCCCCNCCCN` [SPERMINE], the “collision cross section (N2)” value by setting is: ([M+H]+) 148.6 Å²; ([M+Na]+) 151.5 Å².

As for `CCCCCCCCCCCCCCC[C@@H](O)[C@@H](N)CO` [SPHINGANINE], the “collision cross section (N2)” value runs as follows: ([M+H]+) 189 Å²; ([M+Na]+) 191.1 Å².

In the case of `Cn1cnc2c1c(=O)[nH]c(=O)n2C` [THEOBROMINE], the “collision cross section (N2)” value ([M+H]+) was 131.2 Å² and 136.9 Å².

On to `C[C@@H](O)[C@H](N)C(=O)O` [THREONINE], for which the “collision cross section (N2)” value was found to be 126.7 Å² ([M+H]+) and 120.2 Å² ([M-H]-).

Take `O=C(O)[C@@H]1C[C@@H](O)CN1` [TRANS-4-HYDROXY-L-PROLINE]: the “collision cross section (N2)” value was 127.9 Å² ([M+H]+); 139.3 Å² ([M+Na]+); 126.2 Å² and 126.3 Å² ([M-H]-).

As to `O=C/C=C/c1ccccc1` [TRANS-CINNAMALDEHYDE], under “[M+H]+”, the “collision cross section (N2)” value was found to be 121.5 Å².

Regarding `O=C(O)c1c[nH]c(=O)[nH]c1=O` [URACIL 5-CARBOXYLATE], the “collision cross section (N2)” value reads like this: ([M+Na]+) 139.8 Å²; ([M-H]-) 118.9 Å².

For the molecule `O=c1[nH]c(=O)c2[nH]c(=O)[nH]c2[nH]1` [URATE], where the note is “[M+H]+”, the “collision cross section (N2)” value was 130.7 Å².
